From ChEMBL document CHEMBL2311501, “Discovery and preliminary structure-activity relationship analysis of 1,14-sperminediphenylacetamides as potent and selective antimalarial lead compounds” (Bioorg Med Chem Lett, 2013) come the findings set out here.

Molecules are shown by their SMILES.

The test system of the first test is Plasmodium falciparum. Nature of the test: Antiprotozoal activity against erythrocytic stages of Plasmodium falciparum K1 by [3H]hypoxanthine incorporation assay. It is filed as functional, organism-based.
Conditions: not given
By IC50 is commonly meant the concentration needed to halve the response being measured. Read a high IC50 as weaker potency. `O=C(Cc1ccc(O)c(O)c1)NCCCCNC(=O)Cc1ccc(O)c(O)c1` returned an IC50 above 13 µM.
The same measure, in the same setting: in the case of `COc1cc(CC(=O)NCCCOCCOCCOCCCNC(=O)Cc2ccc(O)c(OC)c2)ccc1O` it was above 9.1 µM; in that of `O=C(Cc1ccccc1)NCCCOCCOCCOCCCNC(=O)Cc1ccccc1`, above 11 µM.
For `O=C(Cc1ccc(O)c(O)c1)NCCCOCCOCCOCCCNC(=O)Cc1ccc(O)c(O)c1`, the IC50 is above 9.6 µM.
Still for that read-out and setting: as for `COc1cc(CC(=O)NCCN2CCOCC2)ccc1O`, the figure is above 12 µM.
The compound `COc1cc(CC(=O)NCCN(C)C)ccc1O` showed an IC50 above 14 µM.
`NCCCNCCCCNCCCNC(=O)Cc1ccccc1` gave an IC50 of 35 µM.
As to `O=C(Cc1ccccc1)NCCCNCCCCNCCCNC(=O)C(F)(F)F`, the IC50 stood at 8 µM.
In turn, `COc1cc(CC(=O)NCCCCNCCCNC(=O)Cc2ccc(O)c(OC)c2)ccc1O` displayed an IC50 above 8.5 µM.
In turn, `O=C(Cc1ccc(O)cc1)NCCCCNCCCNC(=O)Cc1ccc(O)cc1` came in with an IC50 of 3.6 µM.
Consider `COc1cc(CC(=O)NCCCNCCNC(=O)Cc2ccc(O)c(OC)c2)ccc1O`, for which the IC50 is above 8.9 µM.
On to `O=C(Cc1cccc(O)c1)NCCCNCCNC(=O)Cc1cccc(O)c1`, for which the IC50 is above 10 µM.

A further test deals with L6. The test can be described thus: Cytotoxicity against rat L6 cells after 72 hrs by Alamar blue assay. The note with it: L6, 72 h. It is filed as cell-based.
`O=C(Cc1ccc(O)c(O)c1)NCCCCNC(=O)Cc1ccc(O)c(O)c1` registered an IC50 of 130 µM.
`COc1cc(CC(=O)NCCCOCCOCCOCCCNC(=O)Cc2ccc(O)c(OC)c2)ccc1O` displayed an IC50 above 160 µM.
Regarding `O=C(Cc1ccccc1)NCCCOCCOCCOCCCNC(=O)Cc1ccccc1`, the IC50 is above 200 µM.
Compound `O=C(Cc1ccc(O)c(O)c1)NCCCOCCOCCOCCCNC(=O)Cc1ccc(O)c(O)c1` displayed an IC50 of 96 µM. This counts as double-digit micromolar.
As for `COc1cc(CC(=O)NCCN2CCOCC2)ccc1O`, the half-maximal inhibitory concentration (IC50) stood at 210 µM.
As to `COc1cc(CC(=O)NCCN(C)C)ccc1O`, the IC50 was above 250 µM.
In the case of `NCCCNCCCCNCCCNC(=O)Cc1ccccc1`, the IC50 turned out to be 94 µM.
For the compound `O=C(Cc1ccccc1)NCCCNCCCCNCCCNC(=O)C(F)(F)F`, the IC50 is 110 µM. This IC50 and that of the compound before are within 1.5-fold of each other.
As to `COc1cc(CC(=O)NCCCCNCCCNC(=O)Cc2ccc(O)c(OC)c2)ccc1O`, the IC50 was above 150 µM.
The same measure, in the same setting: in the case of `O=C(Cc1ccc(O)cc1)NCCCCNCCCNC(=O)Cc1ccc(O)cc1` it was above 170 µM; in that of `COc1cc(CC(=O)NCCCNCCNC(=O)Cc2ccc(O)c(OC)c2)ccc1O`, above 160 µM.
Compound `O=C(Cc1cccc(O)c1)NCCCNCCNC(=O)Cc1cccc(O)c1` showed an IC50 above 180 µM.
For `COc1cc([C@@H]2c3cc4c(cc3[C@H](O)[C@H]3COC(=O)[C@H]23)OCO4)cc(OC)c1OC` [PODOFILOX], 0.019 µM corresponded to half-maximal inhibition (IC50). This counts as double-digit nanomolar.

Another test has as its system Leishmania donovani. Nature of the test: Antiprotozoal activity against amastigote/ axenic stage of Leishmania donovani MHOM-ET-67/L82 after 72 hrs by Alamar blue assay. Format: functional, organism-based. The note with it: MHOM-ET-67/L82, 72 h. For orientation: Resazurin is reduced to fluorescent resorufin, in cell work by metabolically active cells.
Turning to `O=C(Cc1ccc(O)c(O)c1)NCCCCNC(=O)Cc1ccc(O)c(O)c1`, the IC50 was above 230 µM.
On the same count and under the same terms, as for `COc1cc(CC(=O)NCCCOCCOCCOCCCNC(=O)Cc2ccc(O)c(OC)c2)ccc1O`, the figure is 150 µM; as for `O=C(Cc1ccccc1)NCCCOCCOCCOCCCNC(=O)Cc1ccccc1`, above 200 µM; as for `O=C(Cc1ccc(O)c(O)c1)NCCCOCCOCCOCCCNC(=O)Cc1ccc(O)c(O)c1`, above 170 µM.
`COc1cc(CC(=O)NCCN2CCOCC2)ccc1O` had an IC50 above 220 µM.
Compound `COc1cc(CC(=O)NCCN(C)C)ccc1O` came in with an IC50 above 250 µM.
For `COc1cc(CC(=O)NCCCCNCCCNC(=O)Cc2ccc(O)c(OC)c2)ccc1O`, the IC50 was above 150 µM.
On the same count and under the same terms, in the case of `O=C(Cc1ccc(O)cc1)NCCCCNCCCNC(=O)Cc1ccc(O)cc1` it was above 170 µM.
As for `COc1cc(CC(=O)NCCCNCCNC(=O)Cc2ccc(O)c(OC)c2)ccc1O`, the IC50 was above 160 µM.
Compound `O=C(Cc1cccc(O)c1)NCCCNCCNC(=O)Cc1cccc(O)c1` registered an IC50 above 180 µM.

Another test deals with Trypanosoma cruzi. Nature of the test: Antiprotozoal activity against Trypanosoma cruzi Tulahuen C4 amastigotes after 96 hrs. It is filed as functional, organism-based. The note with it: Tulahuen C4, 96 h.
As for `O=C(Cc1ccc(O)c(O)c1)NCCCCNC(=O)Cc1ccc(O)c(O)c1`, the IC50 is above 230 µM.
As to `COc1cc(CC(=O)NCCCOCCOCCOCCCNC(=O)Cc2ccc(O)c(OC)c2)ccc1O`, the IC50 is above 160 µM.
Regarding `O=C(Cc1ccccc1)NCCCOCCOCCOCCCNC(=O)Cc1ccccc1`, the IC50 was above 200 µM.
Same read-out and setting: in the case of `O=C(Cc1ccc(O)c(O)c1)NCCCOCCOCCOCCCNC(=O)Cc1ccc(O)c(O)c1` it was above 170 µM; in that of `COc1cc(CC(=O)NCCN2CCOCC2)ccc1O`, above 220 µM.
In turn, `COc1cc(CC(=O)NCCN(C)C)ccc1O` registered a 50% inhibitory concentration (IC50) above 250 µM.
As for `COc1cc(CC(=O)NCCCCNCCCNC(=O)Cc2ccc(O)c(OC)c2)ccc1O`, the IC50 was above 150 µM.
Same read-out and setting: in the case of `O=C(Cc1ccc(O)cc1)NCCCCNCCCNC(=O)Cc1ccc(O)cc1` it was above 170 µM; in that of `COc1cc(CC(=O)NCCCNCCNC(=O)Cc2ccc(O)c(OC)c2)ccc1O`, above 160 µM; in that of `O=C(Cc1cccc(O)c1)NCCCNCCNC(=O)Cc1cccc(O)c1`, above 180 µM.

Another test relates to Trypanosoma brucei rhodesiense. Nature of the test: Antiprotozoal activity against Trypanosoma brucei rhodesiense STIB 900 after 72 hrs by Alamar blue assay. It is filed as functional, organism-based. The note with it: STIB 900, 72 h.
On to `O=C(Cc1ccc(O)c(O)c1)NCCCCNC(=O)Cc1ccc(O)c(O)c1`, for which the IC50 turned out to be 3.3 µM.
Consider `COc1cc(CC(=O)NCCCOCCOCCOCCCNC(=O)Cc2ccc(O)c(OC)c2)ccc1O`, for which the IC50 came to 110 µM.
As for `O=C(Cc1ccccc1)NCCCOCCOCCOCCCNC(=O)Cc1ccccc1`, half-maximal inhibition (IC50) was put at 63 µM.
`O=C(Cc1ccc(O)c(O)c1)NCCCOCCOCCOCCCNC(=O)Cc1ccc(O)c(O)c1` yielded a concentration for half-maximal inhibition (IC50) of 5.2 µM.
With `COc1cc(CC(=O)NCCN2CCOCC2)ccc1O`, half-maximal inhibition (IC50) required 150 µM.
For `COc1cc(CC(=O)NCCN(C)C)ccc1O`, the IC50 was 170 µM.
`COc1cc(CC(=O)NCCCCNCCCNC(=O)Cc2ccc(O)c(OC)c2)ccc1O` came in with an IC50 of 150 µM.
For `O=C(Cc1ccc(O)cc1)NCCCCNCCCNC(=O)Cc1ccc(O)cc1`, the IC50 amounted to 120 µM.
For the compound `COc1cc(CC(=O)NCCCNCCNC(=O)Cc2ccc(O)c(OC)c2)ccc1O`, 110 µM corresponded to half-maximal inhibition (IC50).
As for `O=C(Cc1cccc(O)c1)NCCCNCCNC(=O)Cc1cccc(O)c1`, the IC50 came to 120 µM.
